Experiments:
[1] = test system: PC-3; experiment: cells; conditions: Homo sapiens, PC-3, 24 h
Description: Cytotoxicity against human PC3 cells after 24 hrs by MTT assay

[2] = test system: NCI-H1299; experiment: Cytotoxicity against human NCI-H1299 cells after 24 hrs by MTT assay; type: functional, cell-based; conditions: NCI-H1299, 24 h
[3] = test system: HeLa; experiment: Cytotoxicity against human HeLa cells; type: functional, cell-based
[4] = test system: MCF7; experiment: Cytotoxicity against human MCF7 cells after 24 hrs by MTT assay; type: functional, cell-based; conditions: MCF7, 24 h
[5] = target: T1, Serine/threonine-protein kinase mTOR (Homo sapiens, UniProt P42345); experiment: Inhibition of mTOR (unknown origin) incubated for 1 hr by ELISA
[6] = target: Vascular endothelial growth factor receptor 2 (Homo sapiens, UniProt P35968)
Description: Inhibition of human VEGFR-2 incubated for 2.5 hrs by ELISA

[7] = test system: BJ; experiment: Cytotoxicity against human BJ cells; type: cell-based
[8] = target: T1, Serine/threonine-protein kinase mTOR; experiment: Inhibition of mTOR (unknown origin) incubated for 1 hr by ELISA relative to control; conditions: concentration not given here
[9] = test system: HCT-116; experiment: cells; conditions: Homo sapiens, HCT-116, 24 h
Description: Cytotoxicity against human HCT116 cells after 24 hrs by MTT assay

[10] = test system: MRC5; experiment: Cytotoxicity against human MRC5 cells; type: cell-based
[11] = Cytotoxicity against human WPE1-NA22 cells; type: cell-based
[12] = target: Kinesin-like protein KIF11 (Homo sapiens, UniProt P52732); experiment: Inhibition of human Eg5
[13] = test system: UACC-62; experiment: Antiproliferative activity against human UACC62 cells assessed as growth inhibition at 10 uM after 48 hrs by sulforhodamine B assay relative to control; type: functional; conditions: UACC-62, 48 h, read-out: GI
[14] = test system: MDA-MB-468; experiment: Antiproliferative activity against human MDA-MB-468 cells assessed as growth inhibition at 10 uM after 48 hrs by sulforhodamine B assay relative to control; type: functional; conditions: MDA-MB-468, 48 h, read-out: GI
[15] = test system: A549; experiment: Antiproliferative activity against human A549/ATCC cells assessed as growth inhibition at 10 uM after 48 hrs by sulforhodamine B assay relative to control; type: functional; conditions: A549, 48 h, read-out: GI
[16] = test system: A549; experiment: Induction of apoptosis in human A549 cells assessed as early apoptotic cells at 2 uM after 24 hrs by Annexin V-FITC/propidium iodide staining-based flow cytometric analysis (reference value: 0.52%); type: functional
[17] = test system: NCI/ADR-RES; experiment: Antiproliferative activity against human NCI/ADR-RES cells assessed as growth inhibition at 10 uM after 48 hrs by sulforhodamine B assay relative to control; type: functional; conditions: read-out: GI
[18] = test system: UO-31; experiment: Antiproliferative activity against human UO31 cells assessed as growth inhibition at 10 uM after 48 hrs by sulforhodamine B assay relative to control; type: functional; conditions: UO-31, 48 h, read-out: GI
[19] = test system: CAKI-1; experiment: Antiproliferative activity against human Caki1 cells assessed as growth inhibition at 10 uM after 48 hrs by sulforhodamine B assay relative to control; type: functional; conditions: CAKI-1, 48 h, read-out: GI
[20] = test system: ACHN; experiment: Antiproliferative activity against human ACHN cells assessed as growth inhibition at 10 uM after 48 hrs by sulforhodamine B assay relative to control; type: functional; conditions: read-out: GI
[21] = test system: SF-295; experiment: Antiproliferative activity against human SF295 cells assessed as growth inhibition at 10 uM after 48 hrs by sulforhodamine B assay relative to control; type: functional; conditions: SF-295, 48 h, read-out: GI
[22] = test system: A549; experiment: Induction of apoptosis in human A549 cells assessed as viable cells at 2 uM after 24 hrs by Annexin V-FITC/propidium iodide staining-based flow cytometric analysis (reference value: 97.5%); type: functional; conditions: A549, 24 h, read-out: Activity
[23] = test system: HL-60(TB); experiment: Antiproliferative activity against human HL-60(TB) cells assessed as growth inhibition at 10 uM after 48 hrs by sulforhodamine B assay relative to control; type: functional; conditions: HL-60, 48 h, read-out: GI
[24] = test system: A549; experiment: Potency index, ratio of compound activity to 5-FU activity for caspase9 expression in human A549 cells; type: functional
[25] = test system: A549; experiment: Induction of apoptosis in human A549 cells assessed as late apoptotic cells at 2 uM after 24 hrs by Annexin V-FITC/propidium iodide staining-based flow cytometric analysis (reference value: 0.33%); type: functional
[26] = test system: A549; experiment: Induction of apoptosis in human A549 cells assessed as caspase3 expression at 3.04 uM after 2 hrs by ELISA (reference value: 53.45 ng/ml); type: functional
[27] = test system: A549; experiment: Cell cycle arrest in human A549 cells assessed as accumulation of cells at S phase at 2 uM after 24 hrs by propidium iodide staining-based flow cytometric analysis (reference value: 25.26%); type: functional
[28] = test system: NCI-H460; experiment: Antiproliferative activity against human NCI-H460 cells assessed as growth inhibition at 10 uM after 48 hrs by sulforhodamine B assay relative to control; type: functional; conditions: NCI-H460, 48 h, read-out: GI
[29] = test system: A549; experiment: Potency index, ratio of compound activity to 5-FU activity for caspase3 expression in human A549 cells; type: functional
[30] = test system: NCI-H522; experiment: Antiproliferative activity against human NCI-H522 cells assessed as growth inhibition at 10 uM after 48 hrs by sulforhodamine B assay relative to control; type: functional; conditions: NCI-H522, 48 h, read-out: GI
[31] = test system: PC-3; experiment: Antiproliferative activity against human PC3 cells assessed as growth inhibition at 10 uM after 48 hrs by sulforhodamine B assay relative to control; type: functional; conditions: PC-3, 48 h, read-out: GI
[32] = test system: NCI-H322M; experiment: Antiproliferative activity against human NCI-H322M cells assessed as growth inhibition at 10 uM after 48 hrs by sulforhodamine B assay relative to control; type: functional; conditions: read-out: GI
[33] = test system: A549; experiment: Cell cycle arrest in human A549 cells assessed as accumulation of cells at G2/M phase at 2 uM after 24 hrs by propidium iodide staining-based flow cytometric analysis (reference value: 6.2%); type: functional
[34] = test system: A549; experiment: Induction of apoptosis in human A549 cells assessed as necrotic cells at 2 uM after 24 hrs by Annexin V-FITC/propidium iodide staining-based flow cytometric analysis (reference value: 0.07%); type: functional
[35] = test system: K562; experiment: Antiproliferative activity against human K562 cells assessed as growth inhibition at 10 uM after 48 hrs by sulforhodamine B assay relative to control; type: functional; conditions: K562, 48 h, read-out: GI
[36] = test system: A549; experiment: Induction of apoptosis in human A549 cells assessed as caspase9 expression at 3.04 uM after 2 hrs by ELISA (reference value: 0.1726 ng/ml); type: functional
[37] = test system: SK-MEL-5; experiment: Antiproliferative activity against human SK-MEL-5 cells assessed as growth inhibition at 10 uM after 48 hrs by sulforhodamine B assay relative to control; type: functional; conditions: SK-MEL-5, 48 h, read-out: GI
[38] = test system: MOLT-4; experiment: Antiproliferative activity against human MOLT4 cells assessed as growth inhibition at 10 uM after 48 hrs by sulforhodamine B assay relative to control; type: functional; conditions: MOLT-4, 48 h, read-out: GI
[39] = test system: SR; experiment: Antiproliferative activity against human SR cells assessed as growth inhibition at 10 uM after 48 hrs by sulforhodamine B assay relative to control; type: functional; conditions: read-out: GI
[40] = test system: T47D; experiment: Antiproliferative activity against human T47D cells assessed as growth inhibition at 10 uM after 48 hrs by sulforhodamine B assay relative to control; type: functional; conditions: read-out: GI
[41] = test system: A549; experiment: Induction of apoptosis in human A549 cells 24 hrs by propidium iodide staining-based flow cytometric analysis (reference value: 0.92%); type: functional
[42] = test system: A549; experiment: Cell cycle arrest in human A549 cells assessed as accumulation of cells at pre-G1 phase at 2 uM after […] by propidium iodide staining-based flow cytometric analysis (reference value: 0.92%); type: functional
[43] = test system: LOX IMVI; experiment: Antiproliferative activity against human LOXIMVI cells assessed as growth inhibition at 10 uM after 48 hrs by sulforhodamine B assay relative to control; type: functional; conditions: read-out: GI
[44] = test system: A549; experiment: Cell cycle arrest in human A549 cells assessed as accumulation of cells at G0/G1 phase at 2 uM after 24 hrs by propidium iodide staining-based flow cytometric analysis (reference value: 67.62%); type: functional
[45] = test system: OVCAR-4; experiment: Antiproliferative activity against human OVCAR4 cells assessed as growth inhibition at 10 uM after 48 hrs by sulforhodamine B assay relative to control; type: functional; conditions: OVCAR-4, 48 h, read-out: GI
[46] = test system: HCT-116; experiment: Antiproliferative activity against human HCT116 cells assessed as growth inhibition at 10 uM after 48 hrs by sulforhodamine B assay relative to control; type: functional; conditions: HCT-116, 48 h, read-out: GI
[47] = test system: MCF7; experiment: Antiproliferative activity against human MCF7 cells assessed as growth inhibition at 10 uM after 48 hrs by sulforhodamine B assay relative to control; type: functional; conditions: MCF7, 48 h, read-out: GI
[48] = test system: HCT-15; experiment: Antiproliferative activity against human HCT15 cells assessed as growth inhibition at 10 uM after 48 hrs by sulforhodamine B assay relative to control; type: functional; conditions: HCT-15, 48 h, read-out: GI

Kinesin-like protein KIF11, sequence (P52732 whole entry): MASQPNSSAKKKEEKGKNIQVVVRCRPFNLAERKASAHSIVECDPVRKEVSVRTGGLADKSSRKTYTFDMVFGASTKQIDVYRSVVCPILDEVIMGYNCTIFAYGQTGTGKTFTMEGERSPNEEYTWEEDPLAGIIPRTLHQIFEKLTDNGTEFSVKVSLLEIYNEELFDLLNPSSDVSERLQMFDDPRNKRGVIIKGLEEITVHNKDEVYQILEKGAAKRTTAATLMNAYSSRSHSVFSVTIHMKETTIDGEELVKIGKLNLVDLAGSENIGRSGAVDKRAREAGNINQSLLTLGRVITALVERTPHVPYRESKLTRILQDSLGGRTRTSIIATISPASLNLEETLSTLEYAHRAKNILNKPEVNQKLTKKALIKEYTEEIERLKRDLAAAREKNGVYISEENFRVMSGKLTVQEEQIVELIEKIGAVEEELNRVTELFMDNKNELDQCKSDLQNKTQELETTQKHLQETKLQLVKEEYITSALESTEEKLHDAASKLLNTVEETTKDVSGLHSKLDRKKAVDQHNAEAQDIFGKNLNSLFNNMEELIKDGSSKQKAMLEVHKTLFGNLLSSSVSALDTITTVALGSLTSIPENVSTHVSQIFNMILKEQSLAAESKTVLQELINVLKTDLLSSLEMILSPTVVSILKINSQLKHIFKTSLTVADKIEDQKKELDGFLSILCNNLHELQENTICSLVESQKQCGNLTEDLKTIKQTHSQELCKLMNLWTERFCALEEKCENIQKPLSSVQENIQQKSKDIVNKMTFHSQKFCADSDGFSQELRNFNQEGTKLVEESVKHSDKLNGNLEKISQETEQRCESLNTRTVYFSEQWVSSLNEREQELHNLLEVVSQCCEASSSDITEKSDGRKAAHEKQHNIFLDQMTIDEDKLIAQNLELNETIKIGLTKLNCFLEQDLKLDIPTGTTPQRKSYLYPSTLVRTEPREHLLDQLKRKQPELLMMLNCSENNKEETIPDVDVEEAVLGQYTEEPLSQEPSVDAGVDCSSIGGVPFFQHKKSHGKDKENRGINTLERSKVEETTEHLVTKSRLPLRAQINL
Vascular endothelial growth factor receptor 2, sequence (P35968 whole entry): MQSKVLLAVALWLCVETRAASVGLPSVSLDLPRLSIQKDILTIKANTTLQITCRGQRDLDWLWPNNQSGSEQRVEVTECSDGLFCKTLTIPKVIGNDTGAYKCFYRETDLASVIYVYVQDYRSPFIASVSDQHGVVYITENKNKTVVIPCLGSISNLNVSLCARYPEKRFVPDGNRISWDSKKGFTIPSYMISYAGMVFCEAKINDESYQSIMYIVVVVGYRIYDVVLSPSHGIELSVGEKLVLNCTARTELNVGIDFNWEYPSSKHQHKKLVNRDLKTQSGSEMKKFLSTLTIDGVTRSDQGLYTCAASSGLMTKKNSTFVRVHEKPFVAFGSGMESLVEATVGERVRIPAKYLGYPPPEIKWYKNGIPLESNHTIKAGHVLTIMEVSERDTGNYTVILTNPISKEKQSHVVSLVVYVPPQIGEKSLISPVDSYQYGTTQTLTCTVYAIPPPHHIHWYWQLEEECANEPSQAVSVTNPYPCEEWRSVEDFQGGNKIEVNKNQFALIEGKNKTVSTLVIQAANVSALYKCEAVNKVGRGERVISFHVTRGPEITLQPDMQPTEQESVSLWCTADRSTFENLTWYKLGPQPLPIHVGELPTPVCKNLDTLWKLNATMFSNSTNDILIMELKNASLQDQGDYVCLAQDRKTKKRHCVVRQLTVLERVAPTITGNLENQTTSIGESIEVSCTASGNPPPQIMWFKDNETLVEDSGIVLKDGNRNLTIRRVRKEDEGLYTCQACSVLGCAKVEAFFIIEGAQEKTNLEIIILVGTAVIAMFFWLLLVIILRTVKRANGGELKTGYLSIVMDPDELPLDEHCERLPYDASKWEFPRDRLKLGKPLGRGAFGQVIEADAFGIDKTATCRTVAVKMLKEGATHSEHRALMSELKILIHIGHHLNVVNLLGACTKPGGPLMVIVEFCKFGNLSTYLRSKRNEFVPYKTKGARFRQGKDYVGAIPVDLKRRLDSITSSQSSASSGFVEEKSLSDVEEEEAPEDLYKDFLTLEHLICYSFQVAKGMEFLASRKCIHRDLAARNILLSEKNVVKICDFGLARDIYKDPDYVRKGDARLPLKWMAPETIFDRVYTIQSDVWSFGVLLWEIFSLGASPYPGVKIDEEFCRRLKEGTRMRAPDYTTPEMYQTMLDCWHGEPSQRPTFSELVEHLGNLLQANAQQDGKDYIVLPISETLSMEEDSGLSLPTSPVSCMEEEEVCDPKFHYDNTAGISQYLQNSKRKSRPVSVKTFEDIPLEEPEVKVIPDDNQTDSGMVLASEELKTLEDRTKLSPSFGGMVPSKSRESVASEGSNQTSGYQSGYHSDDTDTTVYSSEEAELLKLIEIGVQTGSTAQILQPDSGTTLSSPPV

CCOC(=O)C1=C(C)Nc2nc3ccccc3n2C1c1c(O)ccc2ccccc12 (stereo not given)
IC50 [1]: 37 µM | IC50 [2]: 40 µM

CCOC(=O)C1=C(CSc2nc3cc([N+](=O)[O-])ccc3[nH]2)N(C)C(=O)NC1c1ccccc1 (stereo not given)
IC50 [1]: 9.18 µM | IC50 [3]: 1.4 µM | IC50 [4]: 9.39 µM | IC50 [5]: 0.72 µM | IC50 [6]: 1.2 µM | IC50 [7]: 37.5 µM | inhibition [8]: 84.6% | IC50 [9]: 7.29 µM | IC50 [10]: 44.2 µM | IC50 [11]: 21.7 µM

CCOC(=O)C1=C(C)NC(=O)NC1c1cccc(O)c1 (stereo not given)
IC50 [12]: 14 µM

CCOC(=O)C1=C(CSC(=S)N(C2CCCCC2)C2CCCCC2)N(C)C(=O)NC1c1ccccc1 (stereo not given)
inhibition of growth at 10 µM [13]: 54% | IC50 [3]: 1.85 µM | inhibition of growth at 10 µM [14]: 53% | inhibition of growth at 10 µM [15]: 53% | Activity [16]: 3.27% | inhibition of growth at 10 µM [17]: 37% | inhibition of growth at 10 µM [18]: 56% | inhibition of growth at 10 µM [19]: 75% | inhibition of growth at 10 µM [20]: 63% | inhibition of growth at 10 µM [21]: 61% | viability at 2 µM [22]: 90.7% | inhibition of growth at 10 µM [23]: 85% | Ratio [24]: 100 | IC50 [5]: 0.64 µM | Activity [25]: 3.31% | Activity [26]: 560.4 ng/mL | Activity [27]: 21.95% | inhibition of growth at 10 µM [28]: 88% | Ratio [29]: 10 | inhibition of growth at 10 µM [30]: 42% | inhibition of growth at 10 µM [31]: 79% | inhibition of growth at 10 µM [32]: 9% | Activity [33]: 12.41% | Activity [34]: 0.81% | inhibition of growth at 10 µM [35]: 65% | IC50 [7]: 18.2 µM | Activity [36]: 18.14 ng/mL | inhibition of growth at 10 µM [37]: 86% | inhibition of growth at 10 µM [38]: 72% | inhibition of growth at 10 µM [39]: 71% | inhibition of growth at 10 µM [40]: 50% | Activity [41]: 7.39% | Activity [42]: 7.39% | inhibition of growth at 10 µM [43]: 67% | Activity [44]: 58.25% | inhibition of growth at 10 µM [45]: 56% | inhibition [8]: 86.6% | inhibition of growth at 10 µM [46]: 74% | inhibition of growth at 10 µM [47]: 54% | IC50 [10]: 32 µM | inhibition of growth at 10 µM [48]: 61% | IC50 [11]: 32.1 µM
